Laboratory results as given in US20250066367A1, “Pyrimidine-Annulated Triazole Derivatives and Their Use in Platelet Aggregation Inhibition” (BEIJING HONGHUI MEDITECH CO., LTD., priority 2021, published 2025).
Where two headings read alike, the source gives them in different places.

Target: human P2Y12 receptor (Homo sapiens, UniProt Q9H244)
Experiment: Inhibition study in human P2Y12 receptor transfected CHO cells (cAMP, LANCE Ultra cAMP Kit)
Type: cell-based
Procedure: A CHO cell line which stably expresses human P2Y12 receptors was used in the study of the inhibitory effect of the compounds of the disclosure. (The cell line was constructed by Beijing Ion Channel Explorer Co.) The hP2Y12-CHO Cells were cultured in Ham's F-12 medium (Ham's F-12 Medium: +10% FBS +200 μg/ml Hygromycin B) and incubated at 37° C. under 5% CO2. The poor culture medium was removed, and the cells were washed with PBS. Then 1 mL trypsin solution was added to digest/detach the cells. The culture dish was incubated at 37° C. for 2 minutes. As soon as the cells were detached, 5 mL 37° C. pre-warmed complete medium was added. Cell suspension was transferred into a sterile pipet, the cells aggregates were dissociated by a gentle homogenization. The cell suspension was transferred into a sterile tube, and centrifuged at 1000 rpm for 5 minutes; In order to maintain the physiological activity of cells, the degree of cell fusion was controlled at about 80%.
After cell counting, the cells were cultured in 384-well plate. The test compounds were serially diluted 5-fold from 10000 nM for 10 concentrations and in 3 replicates. Ticagrelor was used as the reference compound and 2-MeSADP as the inducer. After the incubation for 15 min at 37° C., forskolin buffer was added to all wells to induce the production of cAMP. The plate was centrifuged at 1000 rpm for 1 minute, followed by incubation at 37° C. for 30 min. After lysis, the cAMP expression was quantified using PerkinElmer's LANCE® Ultra cAMP Kit method.

[1] = hP2Y12-CHO cells, 2-MeSADP as inducer, forskolin-induced cAMP, read-out: Inbibition of P2Y12 IC50

Chain of human P2Y12 receptor (Q9H244 whole entry): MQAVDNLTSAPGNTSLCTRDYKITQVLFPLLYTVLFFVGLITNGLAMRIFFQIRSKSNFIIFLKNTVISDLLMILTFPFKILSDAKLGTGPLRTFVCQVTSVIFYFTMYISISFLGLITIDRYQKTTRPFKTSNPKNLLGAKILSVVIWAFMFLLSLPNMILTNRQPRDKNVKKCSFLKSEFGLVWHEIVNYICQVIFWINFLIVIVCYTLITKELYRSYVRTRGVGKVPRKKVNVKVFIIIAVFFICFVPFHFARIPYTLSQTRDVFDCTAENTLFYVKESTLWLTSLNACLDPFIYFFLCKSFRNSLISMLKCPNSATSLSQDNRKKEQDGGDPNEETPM

| SMILES | IC50 [1] [µM] | IC50 [µM] |
| --- | --- | --- |
| CCCSc1nc(N[C@@H]2C[C@H]2c2ccc(F)c(F)c2)c2nnn([C@H]3CO[C@@H](CO)C3)c2n1 [Compound 32, ((2R,4R)-4-(7-(((1R,2S)-2-(3,4-difluorophenyl)cyclopropyl)amino)-5-(propylthio)-3H-[1,2,3]triazolo[4,5-d]pyrimidin-3-yl)tetrahydrofuran-2-yl)methanol] | < 0.05 |  |
| CCC[S+]([O-])c1nc(N[C@@H]2C[C@H]2c2ccc(F)c(F)c2)c2nnn([C@@H]3C[C@H](C(=O)O)O[C@H]3CO)c2n1 (stereo partly drawn) [Compound 43, (2R,4R,5R)-4-(7-(((1R,2S)-2-(3,4-difluorophenyl)cyclopropyl)amino)-5-(propylsulfinyl)-3H-[1,2,3]triazolo[4,5-d]pyrimidin-3-yl)-5-(hydroxymethyl) tetrahydrofuran-2-carboxylic Acid] | 0.25 to 1.25 |  |
| CCCSc1nc(N[C@@H]2C[C@H]2c2ccc(F)c(F)c2)c2nnn([C@@H]3C[C@H](CO)O[C@H]3CO)c2n1 [Compound 19, ((2R,3R,5R)-3-(7-(((1R,2S)-2-(3,4-difluorophenyl)cyclopropyl)amino)-5-(propylthio)-3H-[1,2,3]triazolo[4,5-d]pyrimidin-3-yl)tetrahydrofuran-2,5-diyl)dimethanol] | < 0.05 |  |
| CCCSc1nc(N[C@@H]2C[C@H]2c2ccc(F)c(F)c2)c2nnn([C@@H]3C[C@H](C(=O)O)O[C@H]3CO)c2n1 [Compound 42, (2R,4R,5R)-4-(7-(((1R,2S)-2-(3,4-difluorophenyl)cyclopropyl)amino)-5-(propylthio)-3H-[1,2,3]triazolo[4,5-d]pyrimidin-3-yl)-5-(hydroxymethyl)tetrahydrofuran-2-carboxylic acid] | < 0.05 |  |
| CCCSc1nc(N[C@@H]2C[C@H]2c2ccc(F)c(F)c2)c2nnn([C@@H]3[C@@H](F)[C@H](CO)O[C@H]3CO)c2n1 [Compound 39b, ((2R,3S,4R,5S)-3-(7-(((1R,2S)-2-(3,4-difluorophenyl)cyclopropyl)amino)-5-(propylthio)-3H-[1,2,3]triazolo[4,5-d]pyrimidin-3-yl)-4-fluorotetrahydrofuran-2,5-diyl)dimethanol] | 0.05 to 0.25 |  |
| CCCSc1nc(N[C@@H]2C[C@H]2c2ccc(F)c(F)c2)c2nnn([C@@H]3C[C@H](CCO)O[C@H]3CO)c2n1 [Compound 54, 2-((2R,4R,5R)-4-(7-(((1R,2S)-2-(3,4-difluorophenyl)cyclopropyl)amino)-5-(propylthio)-3H-[1,2,3]triazolo[4,5-d]pyrimidin-3-yl)-5-(hydroxymethyl)tetrahydrofuran-2-yl)ethan-1-ol] | > 1.25 |  |
| CCCSc1nc(N[C@@H]2C[C@H]2c2ccc(F)c(F)c2)c2nnn([C@@H]3[C@@H](O)[C@H](CO)O[C@H]3CO)c2n1 [Compound 8, ((2R,3R,4R,5S)-3-(7-(((1R,2S)-2-(3,4-difluorophenyl)cyclopropyl)amino)-5-(propylthio)-3H-[1,2,3]triazolo[4,5-d]pyrimidin-3-yl)-4-hydroxytetrahydrofuran-2,5-diyl)dimethanol] | 0.25 to 1.25 |  |
| CCCSc1nc(N[C@@H]2C[C@H]2c2ccc(F)c(F)c2)c2nnn([C@H]3CO[C@@H](CO)[C@@H]3O)c2n1 [Compound 27, (2S,3R,4S)-4-(7-(((1R,2S)-2-(3,4-difluorophenyl)cyclopropyl)amino)-5-(propylthio)-3H-[1,2,3]triazolo[4,5-d]pyrimidin-3-yl)-2-(hydroxymethyl)tetrahydrofuran-3-ol] | < 0.05 |  |
| CCCSc1nc(N[C@@H]2C[C@H]2c2ccc(F)c(F)c2)c2nnn([C@@H]3C[C@H](CO)O[C@H]3COC)c2n1 [Compound 49, ((2R,4R,5R)-4-(7-(((1R,2S)-2-(3,4-difluorophenyl)cyclopropyl)amino)-5-(propylthio)-3H-[1,2,3]triazolo[4,5-d]pyrimidin-3-yl)-5-(methoxymethyl)tetrahydrofuran-2-yl)methanol] | 0.25 to 1.25 |  |
| CCCSc1nc(N[C@@H]2C[C@H]2c2ccc(F)c(F)c2)c2nnn([C@@H]3C[C@H](OCCO)[C@@H](O)[C@H]3O)c2n1 [Ticagrelor, reference compound] |  | < 0.05 |
| CCCSc1nc(N[C@@H]2C[C@H]2c2ccc(F)c(F)c2)c2nnn([C@@H]3[C@H](F)[C@H](CO)O[C@H]3CO)c2n1 [Compound 39a, ((2R,3S,4S,5S)-3-(7-(((1R,2S)-2-(3,4-difluorophenyl)cyclopropyl)amino)-5-(propylthio)-3H-[1,2,3]triazolo[4,5-d]pyrimidin-3-yl)-4-fluorotetrahydrofuran-2,5-diyl)dimethanol] | 0.05 to 0.25 |  |
